US20250144067A1, “PERSONALIZED STARVATION THERAPY FOR CANCER” (Faeth Therapeutics, Inc., priority 2021, published 2025)
Structures can show the parent of a compound that is named as a salt.

How the values were obtained:
[1] = test system: NCI-H292 lung cancer cells; test: FDA drug screening, complete media vs cholesterol-free media without statin (TABLE 1); format: cell-based, human
[2] = test system: NCI-H292 lung cancer cells; test: FDA drug screening, complete media vs cholesterol-free media with simvastatin (TABLE 2); format: cell-based, human; conditions: for Cholesterol-free media + simvastatin (0.04 μM) / Complete Media: NCI-H292 cells
[3] = Complete minus Cholesterol-free, […]
[4] = NCI-H292 cells, FDA drug library screen, cholesterol-free media without statin
[5] = NCI-H292 cells, FDA drug library screen, complete media
[6] = cholesterol-free media with simvastatin 0.04 μM, FDA drug library screen (TABLE 2)
[7] = complete media, FDA drug library screen (TABLE 2)
[8] = complete media minus cholesterol-free media + simvastatin (0.04 μM), […]
[9] = Complete minus Cholesterol-free, greater than 0 enhanced anti-cancer activity, about 0 neutral, below 0 antagonist
[10] = cholesterol-free media with simvastatin 0.04 μM, cell growth value in FDA drug screen
[11] = complete media, cell growth value in FDA drug screen
[12] = complete media minus cholesterol-free media + simvastatin, >0 enhanced anti-cancer activity, about 0 neutral, <0 antagonist
[13] = Complete minus Cholesterol-free, greater than 0 enhanced anti-cancer activity, about 0 neutral, below 0 antagonists
[14] = NCI-H292 cells in cholesterol-free media without statin
[15] = NCI-H292 cells in complete media
[16] = FDA drug library screen, cholesterol-free media with simvastatin 0.04 μM
[17] = FDA drug library screen, complete media
[18] = complete media vs cholesterol-free media + simvastatin (0.04 μM), >0 enhanced anti-cancer activity, about 0 neutral, <0 antagonist
[19] = Complete minus Cholesterol-free, >0 enhanced anti-cancer activity, about 0 neutral, <0 antagonist
[20] = NCI-H292 cells, cholesterol-free media without statin, FDA drug library screen
[21] = NCI-H292 cells, complete media, FDA drug library screen
[22] = FDA library drug in cholesterol-free media with simvastatin 0.04 μM
[23] = FDA library drug in complete media
[24] = complete media minus cholesterol-free media + simvastatin (0.04 μM), >0 enhanced anti-cancer activity, about 0 neutral, <0 antagonist
[25] = NCI-H292 cells, cholesterol-free media without statin
[26] = complete vs cholesterol-free media, greater than 0 enhanced anti-cancer activity, about 0 neutral, below 0 antagonists
[27] = drug in cholesterol-free media with simvastatin 0.04 μM

CC(Cc1ccc(O)cc1)NCC(O)c1cc(O)cc(O)c1 (stereo not shown) [Fenoterol (hydrobromide)]
Difference [1, 3]: −0.09
Cholesterol-free [1, 4]: 1.404
Complete [1, 5]: 1.311
Cholesterol-free media + simvastatin (0.04 μM) [2, 6]: 0.9531
Complete Media [2, 7]: 0.9512
Difference [2, 8]: 0.00

OC[C@@H](O)[C@@H](O[C@@H]1O[C@H](CO)[C@H](O)[C@H](O)[C@H]1O)[C@H](O)[C@@H](O)CO [Lactitol (monohydrate)]
Difference [1, 9]: −0.17
Cholesterol-free [1, 4]: 1.059
Complete [1, 5]: 0.8908
Cholesterol-free media + simvastatin (0.04 μM) [2, 10]: 1.183
Complete Media [2, 11]: 1.215
Difference [2, 12]: 0.03

CO/N=C(\C(=O)N[C@@H]1C(=O)N2C(C(=O)O)=C(COC(C)=O)CS[C@H]12)c1csc(N)n1 [Cefotaxime]
Difference [1, 13]: −0.57
Cholesterol-free [1, 14]: 1.225
Complete [1, 15]: 0.66
Cholesterol-free media + simvastatin (0.04 μM) [2, 16]: 0.9945
Complete Media [2, 17]: 0.8998
Difference [2, 18]: −0.09

C#C[C@]1(O)CC[C@H]2[C@@H]3CCC4=Cc5oncc5C[C@]4(C)[C@H]3CC[C@@]21C [Danazol]
Difference [1, 19]: −0.06
Cholesterol-free [1, 20]: 0.8249
Complete [1, 21]: 0.7604
Cholesterol-free media + simvastatin (0.04 μM) [2, 16]: 1.056
Complete Media [2, 17]: 0.9458
Difference [2, 18]: −0.11

Nc1nnc(-c2cccc(Cl)c2Cl)c(N)n1 [Lamotrigine]
Difference [1, 9]: −0.08
Cholesterol-free [1, 4]: 1.043
Complete [1, 5]: 0.9644
Cholesterol-free media + simvastatin (0.04 μM) [2, 22]: 1.437
Complete Media [2, 23]: 1.093
Difference [2, 18]: −0.34

COc1cc(/C=C/C(=O)O)ccc1O.[Na] [Ferulic acid (sodium)]
Cholesterol-free [1, 20]: 1.137
Complete [1, 21]: 1.309
Difference ([1]; complete vs cholesterol-free media, >0 enhanced anti-cancer activity, about 0 neutral, <0 antagonist): 0.17
Cholesterol-free media + simvastatin (0.04 μM) [2, 6]: 0.806
Complete Media [2, 7]: 0.766
Difference [2, 24]: −0.04

C[C@H](CCC(=O)O)[C@H]1CC[C@H]2[C@@H]3C(=O)C[C@@H]4CC(=O)CC[C@]4(C)[C@H]3CC(=O)[C@]12C [Dehydrocholic acid]
Difference [1, 19]: −0.25
Cholesterol-free [1, 25]: 1.151
Complete ([1]; NCI-H292 cells, complete media): 0.9012
Cholesterol-free media + simvastatin (0.04 μM) [2, 10]: 0.8533
Complete Media [2, 11]: 0.9003
Difference [2, 12]: 0.05

O=C1NS(=O)(=O)c2ccccc21 [Saccharin]
Difference [1, 19]: 0.01
Cholesterol-free [1, 20]: 0.9292
Complete [1, 21]: 0.9415
Cholesterol-free media + simvastatin (0.04 μM) [2, 16]: 0.8779
Complete Media [2, 17]: 0.7765
Difference [2, 18]: −0.10

Cc1ccccc1C(=O)Nc1ccc(C(=O)N2CCCC(N(C)C)c3ccccc32)cc1 (stereo not shown) [Mozavaptan (hydrochloride)]
Difference [1, 13]: −0.56
Cholesterol-free [1, 14]: 1.248
Complete [1, 15]: 0.6877
Cholesterol-free media + simvastatin (0.04 μM) [2, 10]: 1.17
Complete Media [2, 11]: 1.196
Difference [2, 12]: 0.03

C[C@@H]1[C@@H](c2ccc(Cl)cc2)SC(=O)N1C(=O)NC1CCCCC1 [Hexythiazox]
Difference [1, 3]: −0.16
Cholesterol-free [1, 4]: 1.557
Complete [1, 5]: 1.396
Cholesterol-free media + simvastatin (0.04 μM) ([2]; cholesterol-free media with simvastatin 0.04 μM, […]): 0.8643
Complete Media ([2]; complete media, […]): 0.9913
Difference ([2]; complete media minus cholesterol-free media + simvastatin, […]): 0.13

Nc1[nH]c(=O)ncc1F [Flucytosine]
Cholesterol-free [1, 25]: 1.247
Complete ([1]; NCI-H292 cells, complete media): 0.8456
Difference [1, 26]: −0.40
Cholesterol-free media + simvastatin (0.04 μM) [2, 22]: 1.754
Complete Media [2, 23]: 1.475
Difference [2, 18]: −0.28

COc1ccnc(C[S+]([O-])c2nc3ccc(OC(F)F)cc3[nH]2)c1OC (stereo not shown) [Pantoprazole (sodium hydrate)]
Cholesterol-free [1, 25]: 1.314
Complete ([1]; NCI-H292 cells, complete media): 0.9437
Difference [1, 26]: −0.37
Cholesterol-free media + simvastatin (0.04 μM) [2, 16]: 1.494
Complete Media [2, 17]: 1.718
Difference [2, 12]: 0.22

CN1CC2c3ccccc3Oc3ccc(Cl)cc3C2C1 (stereo not shown) [Asenapine]
Cholesterol-free [1, 25]: 1.636
Complete ([1]; NCI-H292 cells, complete media): 1.303
Difference [1, 26]: −0.33
Cholesterol-free media + simvastatin (0.04 μM) [2, 27]: 0.918
Complete Media ([2]; drug in complete media): 0.7002
Difference [2, 18]: −0.22

COc1ccc2c(c1)c(CC(=O)O)c(C)n2C(=O)c1ccc(Cl)cc1 [Indomethacin]
Difference [1, 13]: −0.82
Cholesterol-free [1, 14]: 1.574
Complete [1, 15]: 0.7546
Cholesterol-free media + simvastatin (0.04 μM) [2, 16]: 1.269
Complete Media [2, 17]: 1.474
Difference [2, 12]: 0.20

CCN1CCCC1CNC(=O)c1cc(S(N)(=O)=O)ccc1OC (stereo not shown) [Sulpiride]
Difference [1, 19]: −0.22
Cholesterol-free [1, 25]: 1.254
Complete ([1]; NCI-H292 cells, complete media): 1.03
Cholesterol-free media + simvastatin (0.04 μM) [2, 6]: 1.077
Complete Media [2, 7]: 1.053
Difference [2, 24]: −0.02

Oritavancin (diphosphate)
Difference [1, 3]: −0.64
Cholesterol-free [1, 14]: 1.626
Complete [1, 15]: 0.9877
Cholesterol-free media + simvastatin (0.04 μM) [2, 27]: 1.021
Complete Media ([2]; drug in complete media): 0.8102
Difference ([2]; complete media vs cholesterol-free media + simvastatin (0.04 μM), […]): −0.21

C[S+](CC[C@H](N)C(=O)[O-])C[C@H]1O[C@@H](n2cnc3c(N)ncnc32)[C@H](O)[C@@H]1O.Cc1ccc(S(=O)(=O)O)cc1.O=S(=O)(O)O.O=S(=O)(O)O (stereo partly shown)
Difference [1, 9]: −0.11
Cholesterol-free [1, 4]: 1.112
Complete [1, 5]: 1.004
Cholesterol-free media + simvastatin (0.04 μM) [2, 16]: 1.19
Complete Media [2, 17]: 1.075
Difference [2, 18]: −0.12

Gadopentetate (dimeglumine)
Difference [1, 3]: −0.06
Cholesterol-free [1, 20]: 1.132
Complete Media [2, 7]: 1.1
Difference [2, 8]: −0.05

C[C@@H](CN1CC(=O)NC(=O)C1)N1CC(=O)NC(=O)C1 [Dexrazoxane (hydrochloride)]
Difference [1, 19]: 0.03
Cholesterol-free [1, 20]: 0.9516
Complete [1, 21]: 0.9799
Cholesterol-free media + simvastatin (0.04 μM) [2, 22]: 1.279
Complete Media [2, 23]: 1.002
Difference [2, 18]: −0.28

CC(=O)OCC(=O)[C@@]1(O)[C@H](C)C[C@H]2[C@@H]3CCC4=CC(=O)C=C[C@]4(C)[C@@]3(F)[C@@H](O)C[C@@]21C [Dexamethasone acetate]
Difference [1, 19]: −0.04
Cholesterol-free [1, 20]: 0.6815
Complete [1, 21]: 0.6403
Cholesterol-free media + simvastatin (0.04 μM) [2, 16]: 0.9553
Complete Media [2, 17]: 0.8728
Difference [2, 18]: −0.08

C=C1CC[C@H](O)C/C1=C/C=C1\CCC[C@]2(C)[C@@H]([C@H](C)CCCC(C)(C)O)CC[C@@H]12 [Calcifediol]
Difference [1, 13]: −0.53
Cholesterol-free [1, 14]: 1.425
Complete [1, 15]: 0.8976
Cholesterol-free media + simvastatin (0.04 μM) [2, 27]: 1.216
Complete Media ([2]; drug in complete media): 1.052
Difference [2, 18]: −0.16

CCO[C@H]1O[C@@H]2O[C@@]3(C)CC[C@H]4[C@H](C)CC[C@@H]([C@H]1C)[C@@]24OO3 [Artemotil]
Difference [1, 19]: −0.21
Cholesterol-free [1, 25]: 0.7572
Complete ([1]; NCI-H292 cells, complete media): 0.5514
Cholesterol-free media + simvastatin (0.04 μM) [2, 16]: 0.9606
Complete Media [2, 17]: 0.8046
Difference [2, 18]: −0.16
